# Patent publication US12227511B2, “Bicyclic compounds as kinase modulators, methods and uses thereof” (Agency for Science, Technology and Research, priority 2018, dated 2025)
# Counter-ions that a name gives are not always drawn.
# Test system: HCCLM3 cells
# Assay: GI50 in HCCLM3 cells, cell viability by MTS assay
# Type: cell-based
# Conditions: Homo sapiens, 72 hours incubation, triplicates, read-out: HCCLM3 activity range (GI50)
# Description: To investigate the effects of compounds on hepatocellular carcinoma (HCC) cell viability, HCCLM3 cells (HCC cells with high metastatic potential) were incubated with increasing concentrations of test compounds for 72 hours. Cell viability was evaluated at the end of incubation period by MTS assay. […] All samples were evaluated in triplicates.
# As set forth in Table 1 below, GI50 values are defined as follows: GI50≤10 μM (+++); GI50>10 μM and ≤20 μM (++); GI50>20 μM (+).
row,GI50 [µM],SMILES
1,≤ 10,"COc1cc2nccc(Oc3ccc(NC(=O)C4(C(=O)NC56CC(C5)C6)CC4)cc3)c2cc1OC [Compound 1, N-(bicyclo[1.1.1]pentan-1-yl)-N-(4-(6,7-dimethoxyquinolin-4-yloxy)phenyl)cyclopropane-1,1-dicarboxamide]"
2,> 20,"COc1cc2nccc(Oc3ccc(NC(=O)C4(C(=O)NC56CC(c7ccccc7)(C5)C6)CC4)cc3)c2cc1OC [Compound 2, N-(4-((6,7-dimethoxyquinolin-4-yl)oxy)phenyl)-N-(3-phenylbicyclo[1.1.1]pentan-1-yl)cyclopropane-1,1-dicarboxamide]"
3,> 20,"COc1cc2nccc(Oc3ccc(NC(=O)C45CC(C(=O)NC67CC(F)(C6)C7)(C4)C5)cc3)c2cc1OC [Compound 3, N^1-(4-((6,7-dimethoxyquinolin-4-yl)oxy)phenyl)-N3-(3-fluorobicyclo[1.1.1]pentan-1-yl)bicyclo[1.1.1]pentane-1,3-dicarboxamide]"
4,≤ 10,"COc1cc2nccc(Oc3ccc(NC(=O)C4(C(=O)NC56CC(F)(C5)C6)CC4)cc3)c2cc1OC [Compound 4, N-(4-((6,7-dimethoxyquinolin-4-yl)oxy)phenyl)-N-(3-fluorobicyclo[1.1.1]pentan-1-yl)cyclopropane-1,1-dicarboxamide]"
5,> 20,"COc1cc2nccc(Oc3ccc(NC(=O)C4(C(=O)NC56CC(OC(=O)c7ccccc7)(C5)C6)CC4)cc3)c2cc1OC [Compound 5, 3-(1-((4-((6,7-dimethoxyquinolin-4-yl)oxy)phenyl)carbamoyl)cyclopropane-1-carboxamido)bicyclo[1.1.1]pentan-1-yl benzoate]"
6,> 20,"COc1cc2nccc(Oc3ccc(NC(=O)C4(C(=O)NC56CC(O)(C5)C6)CC4)cc3)c2cc1OC [Compound 6, N-(4-((6,7-dimethoxyquinolin-4-yl)oxy)phenyl)-N-(3-hydroxybicyclo[1.1.1]pentan-1-yl)cyclopropane-1,1-dicarboxamide]"
7,> 20,"COc1cc2nccc(Oc3ccc(NC(=O)C4(C(=O)NC56CC(C(N)=O)(C5)C6)CC4)cc3)c2cc1OC [Compound 7, N-(3-carbamoylbicyclo[1.1.1]pentan-1-yl)-N-(4-((6,7-dimethoxyquinolin-4-yl)oxy)phenyl)cyclopropane-1,1-dicarboxamide]"
8,> 20,"COc1cc2nccc(Oc3ccc(NC(=O)C4(C(=O)NC56CC(C(=O)N(C)C)(C5)C6)CC4)cc3)c2cc1OC [Compound 8, N-(4-((6,7-dimethoxyquinolin-4-yl)oxy)phenyl)-N-(3-(dimethylcarbamoyl)bicyclo[1.1.1]pentan-1-yl)cyclopropane-1,1-dicarboxamide]"
9,> 20,"COc1cc2nccc(Oc3ccc(NC(=O)C4(C(=O)NC56CC(c7cnccn7)(C5)C6)CC4)cc3)c2cc1OC [Compound 9, N-(4-((6,7-dimethoxyquinolin-4-yl)oxy)phenyl)-N-(3-(pyrazin-2-yl)bicyclo[1.1.1]pentan-1-yl)cyclopropane-1,1-dicarboxamide]"
10,≤ 10,"COc1cc2nccc(Oc3ccc(NC(=O)C4(C(=O)NC56CC(C)(C5)C6)CC4)cc3)c2cc1OC [Compound 10, N-(4-((6,7-dimethoxyquinolin-4-yl)oxy)phenyl)-N-(3-methylbicyclo[1.1.1]pentan-1-yl)cyclopropane-1,1-dicarboxamide]"
11,≤ 10,"COc1cc2nccc(Oc3ccc(NC(=O)C4(C(=O)NC56CC(C(F)(F)F)(C5)C6)CC4)cc3)c2cc1OC [Compound 11, N-(4-((6,7-dimethoxyquinolin-4-yl)oxy)phenyl)-N-(3-(trifluoromethyl)bicyclo[1.1.1]pentan-1-yl)cyclopropane-1,1-dicarboxamide]"
12,> 20,"COc1cc2nccc(Oc3ccc(NC(=O)C4(C(=O)NC56CC(N)(C5)C6)CC4)cc3)c2cc1OC [Compound 12, N-(3-aminobicyclo[1.1.1]pentan-1-yl)-N-(4-((6,7-dimethoxyquinolin-4-yl)oxy)phenyl)cyclopropane-1,1-dicarboxamide]"
13,> 20,"COc1cc2nccc(Oc3ccc(NC(=O)C4(C(=O)NC56CC(NC(C)=O)(C5)C6)CC4)cc3)c2cc1OC [Compound 13, N-(3-acetamidobicyclo[1.1.1]pentan-1-yl)-N-(4-((6,7-dimethoxyquinolin-4-yl)oxy)phenyl)cyclopropane-1,1-dicarboxamide]"
14,> 20,"COc1cc2nccc(Oc3ccc(NC(=O)C4(C(=O)NC56CC(NC(=O)C7(C(=O)Nc8ccc(Oc9ccnc%10cc(OC)c(OC)cc9%10)cc8)CC7)(C5)C6)CC4)cc3)c2cc1OC [Compound 14, N,N′-(bicyclo[1.1.1]pentane-1,3-diyl)bis(N-(4-((6,7-dimethoxyquinolin-4-yl)oxy)phenyl)cyclopropane-1,1-dicarboxamide)]"
15,> 20,"COC(=O)C12CCC(NC(=O)C3(C(=O)Nc4ccc(Oc5ccnc6cc(OC)c(OC)cc56)cc4)CC3)(CC1)CC2 [Compound 15, methyl 4-(1-((4-((6,7-dimethoxyquinolin-4-yl)oxy)phenyl)carbamoyl)cyclopropane-1-carboxamido)bicyclo[2.2.2]octane-1-carboxylate]"
16,> 20,"CCOC(=O)[C@@H]1C2CCC(CC2)[C@H]1NC(=O)C1(C(=O)Nc2ccc(Oc3ccnc4cc(OC)c(OC)cc34)cc2)CC1 [Compound 16, ethyl (2R,3R)-3-(1-((4-((6,7-dimethoxyquinolin-4-yl)oxy)phenyl)carbamoyl)cyclopropane-1-carboxamido)bicyclo[2.2.2]octane-2-carboxylate]"
17,> 20,"COc1cc2nccc(Oc3ccc(NC(=O)C4(C(=O)NC56CNCC5C6)CC4)cc3)c2cc1OC (centres unmarked) [Compound 17, N-(3-azabicyclo[3.1.0]hexan-1-yl)-N-(4-((6,7-dimethoxyquinolin-4-yl)oxy)phenyl)cyclopropane-1,1-dicarboxamide]"
18,> 20,"COc1cc2nccc(Oc3ccc(NC(=O)C4(C(=O)NC56CC5CN(C(C)=O)C6)CC4)cc3)c2cc1OC (centres unmarked) [Compound 18, N-(3-acetyl-3-azabicyclo[3.1.0]hexan-1-yl)-N-(4-((6,7-dimethoxyquinolin-4-yl)oxy)phenyl)cyclopropane-1,1-dicarboxamide]"
19,> 20,"COc1cc2nccc(Oc3ccc(NC(=O)C4(C(=O)N5C[C@@H]6COC[C@@H](C6)C5)CC4)cc3)c2cc1OC [Compound 20, 1-((1R,5S)-3-oxa-7-azabicyclo[3.3.1]nonane-7-carbonyl)-N-(4-((6,7-dimethoxyquinolin-4-yl)oxy)phenyl)cyclopropane-1-carboxamide]"
20,> 20,"COc1cc2nccc(Oc3ccc(NC(=O)C4(C(=O)N5C[C@@H]6[C@H](C5)[C@H]6C(N)=O)CC4)cc3)c2cc1OC [Compound 22, EXO-3-(1-((4-((6,7-dimethoxyquinolin-4-yl)oxy)phenyl)carbamoyl)cyclopropane-1-carbonyl)-3-azabicyclo[3.1.0]hexane-6-carboxamide]"
21,10 to 20,"COc1cc2nccc(Oc3ccc(NC(=O)C4(C(=O)NC56CCC(CC5)CC6)CC4)cc3)c2cc1OC [Compound 24, N-(bicyclo[2.2.2]octan-1-yl)-N-(4-((6,7-dimethoxyquinolin-4-yl)oxy)phenyl)cyclopropane-1,1-dicarboxamide]"
22,≤ 10,"COc1cc2nccc(Oc3ccc(NC(=O)C4(C(=O)NC56CCC(CC5)C6)CC4)cc3)c2cc1OC [Compound 25, N-((1s,4s)-bicyclo[2.2.1]heptan-1-yl)-N-(4-((6,7-dimethoxyquinolin-4-yl)oxy)phenyl)cyclopropane-1,1-dicarboxamide]"
23,> 20,"COc1cc2nccc(Oc3ccc(NC(=O)C4(C(=O)N5CC6CC6C5)CC4)cc3)c2cc1OC (centres unmarked) [Compound 27, 1-(3-azabicyclo[3.1.0]hexane-3-carbonyl)-N-(4-((6,7-dimethoxyquinolin-4-yl)oxy)phenyl)cyclopropane-1-carboxamide]"
24,10 to 20,"COc1cc2nccc(Oc3ccc(NC(=O)C4(C(=O)NC56CC7CC(CC(C7)C5)C6)CC4)cc3)c2cc1OC [Compound 28, N-((3R,5R)-adamantan-1-yl)-N-(4-((6,7-dimethoxyquinolin-4-yl)oxy)phenyl)cyclopropane-1,1-dicarboxamide]"
25,> 20,"COc1cc2nccc(Oc3ccc(NC(=O)C4(C(=O)NC56CC(C(=O)O)(C5)C6)CC4)cc3)c2cc1OC [Compound 29, 3-(1-((4-((6,7-dimethoxyquinolin-4-yl)oxy)phenyl)carbamoyl)cyclopropane-1-carboxamido)bicyclo[1.1.1]pentane-1-carboxylic acid hydrochloride]"

row,SMILES,GI50 [µM]
1,"COc1cc2nccc(Oc3ccc(NC(=O)C4(C(=O)N5[C@@H]6CC[C@H]5C[C@@H](OC)C6)CC4)cc3)c2cc1OC [Compound 19, N-(4-((6,7-dimethoxyquinolin-4-yl)oxy)phenyl)-1-((1R,3r,5S)-3-methoxy-8-azabicyclo[3.2.1]octane-8-carbonyl)cyclopropane-1-carboxamide]",> 20
2,"COc1cc2nccc(Oc3ccc(NC(=O)C4(C(=O)N5[C@@H]6CC[C@H]5C[C@H](C#N)C6)CC4)cc3)c2cc1OC [Compound 21, EXO-1-(3-cyano-8-azabicyclo[3.2.1]octane-8-carbonyl)-N-(4-((6,7-dimethoxyquinolin-4-yl)oxy)phenyl)cyclopropane-1-carboxamide]",> 20
3,"COc1cc2nccc(Oc3ccc(NC(=O)C4(C(=O)NC5C[C@H]6CC[C@@H](C5)N6C)CC4)cc3)c2cc1OC (stereo partly drawn) [Compound 23, ENDO-N-(4-((6,7-dimethoxyquinolin-4-yl)oxy)phenyl)-N-((1R,3r,5S)-8-methyl-8-azabicyclo[3.2.1]octan-3-yl)cyclopropane-1,1-dicarboxamide]",> 20
4,"COc1cc2nccc(Oc3ccc(NC(=O)C4(C(=O)N5C6CCCC5CCC6)CC4)cc3)c2cc1OC [Compound 26, 1-((1s,5s)-9-azabicyclo[3.3.1]nonane-9-carbonyl)-N-(4-((6,7-dimethoxyquinolin-4-yl)oxy)phenyl)cyclopropane-1-carboxamide]",> 20
